One data set relates to HIV-1. Kind of data set: Protection of MT-2 cells against HIV-1 infection (reverse transcriptase activity in supernatant). The class given is cell-based. As to conditions: Human immunodeficiency virus 1, MT2, 96 h; lowest concentration lowering RT activity by 90 %; MT-2 cells with HIV-1, 4 days incubation; read-out: ED90 (the source's name). The source says: In einem weiteren Test kann gezeigt werden, dass die Verbindungen der vorliegenden Erfindung Zellen, die normalerweise von HIV infiziert werden, vor einer solchen Infektion schützen oder zumindest eine solche Infektion verlangsamen. Dabei wird die menschliche T-Zell-Leukämie Zellinie MT-2 (Science 229, 563 (1985)), die empfindlich gegen den zytopathogenen Effekt von HIV ist, mit HIV-1 allein oder mit HIV-1 in Gegenwart einer der erfindungsgemässen Verbindungen inkubiert und nach einigen Tagen die Lebensfähigkeit der so behandelten Zellen beurteilt. Hierzu werden die MT-2-Zellen in RPMI 1640-Medium (Gibco, Schweiz; RPMI 1640 enthält ein Aminosäurengemisch ohne L-Gln), das mit 10% hitzeinaktiviertem fetalem Kälberserum, L-Glutamin, Hepes (2-[4-(2-Hydroxyethyl)-1-piperazino]-ethansulfonsäure) und Standardantibiotika supplementiert ist, bei 37 °C in befeuchteter Luft mit 5% CO2 gehalten. 50 µl der jeweiligen Testverbindung in Kulturmedium und 100 µl HIV-1 in Kulturmedium (800 TCID50/ml) (TCID50 = Tissue Culture Infectious Dose 50 = Dosis, die 50% der MT-2-Zellen infiziert) werden zu 4x1 0^3 exponentiell wachsenden MT-2-Zellen in 50 µl Kulturmedium pro Vertiefung auf 96-Loch-Mikrotiterplatten gegeben. Parallele Ansätze auf einerweiteren Mikrotiterplatte mit Zellen und Testverbindung erhalten 100 µl Kulturmedium ohne Virus. […]

Data set [1] in a line: Blood level in mice after administration (HPLC of blood/plasma). As to conditions: po; mouse blood, peroral 120 mg/kg, 30 min after administration; read-out: Konzentration. The class given is in vivo, Mäuse. As to the method: Die pharmakodynamischen Eigenschaften der Verbindungen der Formel können beispielsweise wie folgt belegt werden: • Die zu untersuchenden Verbindungen der Formel oder (beispielsweise als Kontrolle) die entsprechende Verbindung der Formel werden in einem organischen Lösungsmittel, wie Dimethylsulfoxid (DMSO), in einer Konzentration von 240 mg/ml gelöst. Die resultierenden Lösungen werden mit 20% (w/v) Hydroxypropyl-ßcyclodextrin (HPßCD) verdünnt, um eine Konzentration der Testsubstanz von 12 mg/ml zu erhalten. Diese Lösung wird Mäusen oral durch künstliche Sonderernährung in einer Dosis von 120 mg/kg verabreicht. 30, 60, 90 und 120 min nach der Verabreichung werden die Tiere getötet und Blut entnommen. Pro Zeitpunkt werden drei bis vier Tiere untersucht. Das Blut wird heparinisiert und für die Analyse durch eine der folgenden beiden Methoden vorbereitet: Nach der ersten Methode wird Vollblut deproteinisiert durch Mischen eines Volumenteils Blut mit einem Volumenteil Acetonitril; nach Zentrifugation (10 000 g, 5 min) wird der Überstand durch Reversed-Phase-HPLC untersucht. Nach der zweiten Methode werden 2 µl einer 1 mM Lösung eines internen Standards (wie einer anderen Verbindung der Formel I) zu 0,5 ml heparinisiertem Blut zugegeben. Das Blut wird zentrifugiert (10 000 g, 5 min), und das Plasma mit demselben Volumen Acetonitril vermischt. […]

Structures are written as SMILES.

Consider `COc1ccc(C[C@H](C[C@H](O)[C@H](Cc2ccccc2)NC(=O)OC(C)(C)C)C(=O)N[C@H](C(=O)N[C@@H](Cc2ccccc2)C(=O)N2CCOCC2)C(C)C)cc1` [5(S)-(tert-Butoxycarbonylamino)-4(S)-hydroxy-2(R)-(p-methoxy-phenylmethyl)-6-phenyl-hexanoyl-(L)-valyl-(L)-phenyl-alanyl-morpholin-4-ylamid], for which the EC90 in the data set with HIV-1 amounted to 100 nM. The concentration at 0.5 h in data set [1] was determined as 10.8 µM.

(Values after EP0618222A2, “Dipeptid derivatives of 5-amino-4-hydroxy-hexanoic acid” (CIBA-GEIGY AG, priority 1993, dated 1994).)
